Earlier results, collected in patent US20030215406A1, “Cosmetic or dermatological preparations containing aminogaunidine, derivatives thereof or structural analogs thereof” (Beiersdorf AG, priority 2000, published 2003).

## N=C(N)NN [Aminoguanidine]
solvent: alcohol
  solubility in alcohol: soluble
solvent: ether
  solubility in ether: insoluble
solvent: water
  solubility in water: soluble
